Experimental data reported in article PMC9917560, “Design, Synthesis and Antimicrobial Evaluation of New N-(1-Hydroxy-1,3-dihydrobenzo[c][1,2]oxaborol-6-yl)(hetero)aryl-2-carboxamides as Potential Inhibitors of Mycobacterial Leucyl-tRNA Synthetase” (International Journal of Molecular Sciences, 2023).
Values after ≈ are worked out from the molar mass of the structure shown. Like-named read-outs stand apart in the source and are kept apart here.

How the values were obtained:
[1] = test system: Staphylococcus epidermidis CCM 4418 (ATCC 12228); assay: Antibacterial microdilution broth (EUCAST); type: cell-based; conditions: read-out: MIC Staphylococcus epidermidis
[2] = test system: Candida krusei CCM 8271 (ATCC 6258); assay: Antifungal microdilution broth (EUCAST); type: cell-based; conditions: Pichia kudriavzevii, read-out: MIC Candida krusei
[3] = test system: Candida albicans CCM 8320 (ATCC 24433); assay: Antifungal microdilution broth (EUCAST); type: cell-based; conditions: Candida albicans, read-out: MIC Candida albicans
[4] = test system: Mycobacterium avium DSM 44,156 (ATCC 25291); assay: Antimycobacterial microdilution (resazurin) vs M. avium; type: cell-based; conditions: Mycobacterium avium, Middlebrook 7H9, resazurin; read-out: MIC M. avium
[5] = test system: Mycobacterium kansasii DSM 44,162 (ATCC 12478); assay: Antimycobacterial microdilution (resazurin) vs M. kansasii; type: cell-based; conditions: read-out: MIC M. kansasii
[6] = test system: Acinetobacter baumannii DSM 30007 (ATCC 19606); assay: Antibacterial microdilution broth (EUCAST); type: cell-based; conditions: read-out: MIC Acinetobacter baumannii
[7] = test system: Klebsiella pneumoniae CCM 4415 (ATCC 10031); assay: Antibacterial microdilution broth (EUCAST); type: cell-based; conditions: Klebsiella pneumoniae, read-out: MIC Klebsiella pneumoniae
[8] = test system: Pseudomonas aeruginosa CCM 3955 (ATCC 27853); assay: Antibacterial microdilution broth (EUCAST); type: cell-based; conditions: read-out: MIC Pseudomonas aeruginosa
[9] = test system: Mycolicibacterium smegmatis DSM 43,465 (ATCC 607); assay: Antimycobacterial microdilution (resazurin) vs M. smegmatis; type: cell-based; conditions: Middlebrook 7H9, resazurin, read-out: MIC M. smeg.
[10] = test system: Candida tropicalis CCM 8264 (ATCC 750); assay: Antifungal microdilution broth (EUCAST); type: cell-based; conditions: read-out: MIC Candida tropicalis
[11] = test system: Staphylococcus aureus subsp. aureus CCM 4223 (ATCC 29213); assay: Antibacterial microdilution broth (EUCAST); type: cell-based; conditions: read-out: MIC Staphylococcus aureus subsp. aureus
[12] = test system: Lichtheimia corymbifera CCM 8077; assay: Antifungal microdilution broth (EUCAST); type: cell-based; conditions: Lichtheimia corymbifera, read-out: MIC Lichtheimia corymbifera
[13] = test system: Trichophyton interdigitale CCM 8377 (ATCC 9533); assay: Antifungal microdilution broth (EUCAST); type: cell-based; conditions: Trichophyton interdigitale, read-out: MIC Trichophyton interdigitale
[14] = test system: Mycobacterium tuberculosis H37Ra ITM-M006710 (ATCC 9431); assay: Antimycobacterial microdilution (resazurin) vs Mtb H37Ra; type: cell-based
[15] = test system: methicillin-resistant Staphylococcus aureus subsp. aureus (MRSA) CCM 4750 (ATCC 43300); assay: microbe, parasite or virus in culture; type: cell-based; conditions: read-out: MIC Methicillin-resistant Staphylococcus aureus subsp. aureus
[16] = test system: Enterococcus faecalis CCM 4224 (ATCC 29212); assay: Antibacterial microdilution broth (EUCAST); type: cell-based; conditions: read-out: MIC Enterococcus faecalis
[17] = test system: Mycobacterium tuberculosis H37Rv CNCTC My 331/88 (ATCC 27294); assay: Microplate Alamar Blue assay vs Mtb H37Rv; type: cell-based; conditions: Mycobacterium tuberculosis
[18] = test system: Aspergillus fumigatus ATCC 204305; assay: Antifungal microdilution broth (EUCAST); type: cell-based; conditions: Aspergillus fumigatus, read-out: MIC Aspergillus fumigatus
[19] = test system: Escherichia coli CCM 3954 (ATCC 25922); assay: Antibacterial microdilution broth (EUCAST); type: cell-based; conditions: Escherichia coli, read-out: MIC Escherichia coli
HepG2 cell line = assay: Cytotoxicity screening, CellTiter 96 assay; conditions: for IC50: Homo sapiens, HepG2, 24 h, read-out: IC50 HepG2; for toxicity to HepG2 up to highest tested concentration: tested up to 500 µM (2, 3), 250 µM (12, 17), 100 µM (6, 7, 11) because of solubility
[20] = test system: Mycolicibacterium aurum DSM 43,999 (ATCC 23366); assay: Antimycobacterial microdilution (resazurin) vs M. aurum; type: cell-based; conditions: read-out: MIC M. aurum
[21] = test system: Aspergillus flavus CCM 8363; assay: Antifungal microdilution broth (EUCAST); type: cell-based; conditions: Aspergillus flavus, read-out: MIC Aspergillus flavus
[22] = test system: Candida parapsilosis CCM 8260 (ATCC 22019); assay: Antifungal microdilution broth (EUCAST); type: cell-based; conditions: Lodderomyces parapsilosis, read-out: MIC Candida parapsilosis

Nc1nccnc1C(=O)Nc1ccc2c(c1)B(O)OC2 [Compound 6, 3-amino-N-(1-hydroxy-1,3-dihydrobenzo[c][1,2]oxaborol-6-yl)pyrazine-2-carboxamide]
MIC ([1]; 24h incubation): > 500 µM | MIC ([1]; 48h incubation): > 500 µM | MIC ([2]; 24h incubation): > 500 µM | MIC ([2]; 48h incubation): > 500 µM | MIC ([3]; 24h incubation): > 500 µM | MIC ([3]; 48h incubation): > 500 µM | MIC [4]: > 1850 µM | MIC [5]: > 1850 µM | MIC ([6]; 24h incubation): > 500 µM | MIC ([6]; 48h incubation): > 500 µM | MIC ([7]; 24h incubation): > 500 µM | MIC ([7]; 48h incubation): > 500 µM | MIC ([8]; 24h incubation): > 500 µM | MIC ([8]; 48h incubation): > 500 µM | MIC [9]: 463 µM (≈ 125 µg/mL) | MIC ([10]; 24h incubation): > 500 µM | MIC ([10]; 48h incubation): > 500 µM | MIC ([11]; 24h incubation): > 500 µM | MIC ([11]; 48h incubation): > 500 µM | MIC ([12]; CCM8077, 24h incubation): > 500 µM | MIC ([12]; CCM8077, 48h incubation): > 500 µM | MIC ([13]; 72h incubation): > 500 µM | MIC ([13]; 120h incubation): > 500 µM | MIC ([14]; Middlebrook 7H9, resazurin, recalculated from µg/mL, read-out: MIC Mtb H37Ra): > 1850 µM | MIC ([15]; 24 h): > 500 µM | MIC ([15]; 48 h): > 500 µM | MIC ([16]; 24h incubation): > 500 µM | MIC ([16]; 48h incubation): > 500 µM | MIC ([17]; pH 6.6, MABA, Middlebrook 7H9 pH 6.6, recalculated from µg/mL, read-out: MIC Mtb H37Rv): > 370 µM | MIC ([18]; ATCC204305, 24h incubation): > 500 µM | MIC ([18]; ATCC204305, 48h incubation): > 500 µM | MIC ([19]; 24h incubation): > 500 µM | MIC ([19]; 48h incubation): > 500 µM | melting point: 246.6 to 249.4 °C | IC50 (HepG2 cell line): > 100 µM | toxicity to HepG2 up to highest tested concentration (HepG2 cell line): non-toxic | MIC ([20]; Middlebrook 7H9, resazurin): 14.5 µM (≈ 3.91 µg/mL) | MIC ([21]; CCM8363, 24h incubation): > 500 µM | MIC ([21]; CCM8363, 48h incubation): > 500 µM | MIC ([22]; 24h incubation): > 500 µM | MIC ([22]; 48h incubation): > 500 µM

Nc1ncc(Cl)nc1C(=O)Nc1ccc2c(c1)B(O)OC2 [Compound 7, 3-amino-6-chloro-N-(1-hydroxy-1,3-dihydrobenzo[c][1,2]oxaborol-6-yl)pyrazine-2-carboxamide]
MIC ([1]; 24 h): > 125 µM | MIC ([1]; 48 h): > 125 µM | MIC ([2]; 24 h): > 125 µM | MIC ([2]; 48 h): > 125 µM | MIC ([3]; 24 h): > 125 µM | MIC ([3]; 48 h): > 125 µM | MIC [4]: 411 µM (≈ 125 µg/mL) | MIC [5]: > 1850 µM | MIC ([6]; 24 h): > 125 µM | MIC ([6]; 48 h): > 125 µM | MIC ([7]; 24 h): > 125 µM | MIC ([7]; 48 h): > 125 µM | MIC ([8]; 24 h): > 125 µM | MIC ([8]; 48 h): > 125 µM | MIC [9]: 411 µM (≈ 125 µg/mL) | MIC ([10]; 24 h): > 125 µM | MIC ([10]; 48 h): > 125 µM | MIC ([11]; 24 h): > 125 µM | MIC ([11]; 48 h): > 125 µM | MIC ([12]; CCM8077, 24 h): > 125 µM | MIC ([12]; CCM8077, 48 h): > 125 µM | MIC ([13]; 72 h): > 125 µM | MIC ([13]; 120 h): > 125 µM | MIC ([14]; read-out: MIC Mtb H37Ra, Middlebrook 7H9, resazurin, recalculated from µg/mL): > 1850 µM | MIC ([15]; 24 h): > 125 µM | MIC ([15]; 48 h): > 125 µM | MIC ([16]; 24 h): > 125 µM | MIC ([16]; 48 h): > 125 µM | MIC ([17]; pH 6.6, read-out: MIC Mtb H37Rv, MABA, Middlebrook 7H9 pH 6.6, recalculated from µg/mL): > 328 µM | MIC ([18]; ATCC204305, 24 h): > 125 µM | MIC ([18]; ATCC204305, 48 h): > 125 µM | MIC ([19]; 24 h): > 125 µM | MIC ([19]; 48 h): > 125 µM | melting point: 242.9 to 244.4 °C | IC50 (HepG2 cell line): > 100 µM | toxicity to HepG2 up to highest tested concentration (HepG2 cell line): non-toxic | MIC [20]: > 1850 µM | MIC ([21]; CCM8363, 24 h): > 125 µM | MIC ([21]; CCM8363, 48 h): > 125 µM | MIC ([22]; 24 h): > 125 µM | MIC ([22]; 48 h): > 125 µM
